Reference: patent US9040528B2, “Chemical compounds 542” (AstraZeneca AB, priority 2008, dated 2015)

Target: Escherichia coli DNA gyrase A/B tetramer (Escherichia coli (strain K12), UniProt P0AES4+P0AES6)
Assay: DNA gyrase supercoiling activity fluorescence polarisation assay
Assay type: biochemical
Details: 5 nM enzyme, relaxed plasmid, 0.3 mM ATP, ambient temperature; read-out: E. coli DNA gyrase supercoiling IC50
Summary of the method: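 Supercoiling reactions quenched with 40 nM 5′-BODIPY-FL triplex-forming oligonucleotide probe in pH 3.5 NaCl/sodium acetate buffer; after 60 min, fluorescence anisotropy read (ex 485/em 535 nm). IC50 by nonlinear regression, normalised to 0.8% DMSO (100% activity) and 5 μM ciprofloxacin (0% activity).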

Structure (SMILES)	IC50
C[C@@H]1CN2c3c(cc4c(-n5cc(-c6cnccn6)cn5)noc4c3F)CC3(C(=O)NC(=O)NC3=O)[C@H]2[C@H](C)O1 (relative stereo) [Example 35, (2R,4S,4aS)-rel-11-fluoro-2,4-dimethyl-8-[4-(pyrazin-2-yl)-1H-pyrazol-1-yl]-1,2,4,4a-tetrahydro-2′H,6H-spiro[1,4-oxazino[4,3-a][1,2]oxazolo[4,5-g]quinoline-5,5′-pyrimidine]-2′,4′,6′(1′H,3′H)-trione]	30 µM
Cc1cc(C(F)F)nn1-c1noc2c(F)c3c(cc12)CC1(C(=O)NC(=O)NC1=O)[C@H]1[C@H](C)O[C@H](C)CN31 (relative stereo) [Example 30, (2R,4S,4aS)-rel-8-[3-(difluoromethyl)-5-methyl-1H-pyrazol-1-yl]-11-fluoro-2,4-dimethyl-1,2,4,4a-tetrahydro-2′H,6H-spiro[isoxazolo[4,5-g][1,4]oxazino[4,3-a]quinoline-5,5′-pyrimidine]-2′,4′,6′(1′H,3′H)-trione]	5.4 µM
CCCNc1noc2c(F)c3c(cc12)CC1(C(=O)NC(=O)NC1=O)[C@H]1[C@H](C)O[C@H](C)CN31 (relative stereo) [Example 31, (2R,4S,4aS)-rel-11-fluoro-2,4-dimethyl-8-(propylamino)-1,2,4,4a-tetrahydro-2′H,6H-spiro[1,4-oxazino[4,3-a][1,2]oxazolo[4,5-g]quinoline-5,5′-pyrimidine]-2′,4′,6′(1′H,3′H)-trione]	2.2 µM
Cc1noc2c(Cl)c3c(cc12)CC1(C(=O)NC(=O)NC1=O)[C@H]1[C@H](C)O[C@H](C)CN31 (relative stereo) [Example 7, (2R,4S,4aS)-rel-11-chloro-2,4,8-trimethyl-1,2,4,4a-tetrahydro-2′H,6H-spiro[1,4-oxazino[4,3-a][1,2]oxazolo[4,5-g]quinoline-5,5′-pyrimidine]-2′,4′,6′(1′H,3′H)-trione]	0.4 µM
C[C@@H]1CN2c3c(cc4c(-c5ncccn5)noc4c3F)CC3(C(=O)NC(=O)NC3=O)[C@H]2[C@H](C)O1 [Example 148(b), (2R,4S,4aS)-11-fluoro-2,4-dimethyl-8-(pyrimidin-2-yl)-2,4,4a,6-tetrahydro-1H,1′H-spiro[isoxazolo[4,5-g][1,4]oxazino[4,3-a]quinoline-5,5′-pyrimidine]-2′,4′,6′(3′H)-trione]	0.4 µM
Cc1cc(-c2noc3c(F)c4c(cc23)CC2(C(=O)NC(=O)NC2=O)[C@H]2[C@H](C)O[C@H](C)CN42)no1 (relative stereo) [Example 66, (2R,4S,4aS)-rel-11-fluoro-2,4-dimethyl-8-(5-methyl-1,2-oxazol-3-yl)-1,2,4,4a-tetrahydro-2′H,6H-spiro[1,4-oxazino[4,3-a][1,2]oxazolo[4,5-g]quinoline-5,5′-pyrimidine]-2′,4′,6′(1′H,3′H)-trione]	0.4 µM
C[C@@H]1CN2c3c(nc4c(C(=O)NC(C)(C)C)noc4c3Cl)CC3(C(=O)NC(=O)NC3=O)[C@H]2[C@H](C)O1 (relative stereo) [Example 128, (2R,4S,4aS)-rel-N-tert-butyl-11-chloro-2,4-dimethyl-2′,4′,6′-trioxo-2,2′,3′,4,4a,4′,6,6′-octahydro-1H,1′H-spiro[isoxazolo[4,5-g][1,4]oxazino[4,3-a][1,5]naphthyridine-5,5′-pyrimidine]-8-carboxamide]	19 µM
Cc1noc2c(F)c3c(cc12)CC1(C(=O)NC(=O)NC1=O)[C@@H]1[C@@H](C)O[C@@H](C)CN31 [Example 2(a), (2S,4R,4aR)-11-fluoro-2,4,8-trimethyl-2,4,4a,6-tetrahydro-1′H,1′H-spiro[isoxazolo[4,5-g][1,4]oxazino[4,3-a]quinoline-5,5′-pyrimidine]-2′,4′,6′(3′H)-trione]	83 µM
C[C@@H]1CN2c3c(cc4c(C(=O)N5CC(F)(F)C5)noc4c3F)CC3(C(=O)NC(=O)NC3=O)[C@H]2[C@H](C)O1 [Example 95(a), (2R,4S,4aS)-8-(3,3-difluoroazetidine-1-carbonyl)-11-fluoro-2,4-dimethyl-2,4,4a,6-tetrahydro-1H,1′H-spiro[isoxazolo[4,5-g][1,4]oxazino[4,3-a]quinoline-5,5′-pyrimidine]-2′,4′,6′(3′H)-trione]	1 µM
CC(=O)Nc1noc2c(F)c3c(cc12)CC1(C(=O)NC(=O)NC1=O)[C@H]1[C@H](C)O[C@H](C)CN31 (relative stereo) [Example 6, N-[(2R,4S,4aS)-rel-11-fluoro-2,4-dimethyl-2′,4′,6′-trioxo-1,1′,2,3′,4,4′,4a,6′-octahydro-2′H,6H-spiro[isoxazolo[4,5-g][1,4]oxazino[4,3-a]quinoline-5,5′-pyrimidin]-8-yl]acetamide]	0.8 µM
CSc1noc2c(F)c3c(cc12)CC1(C(=O)NC(=O)NC1=O)[C@H]1[C@H](C)O[C@H](C)CN31 (relative stereo) [Example 62, (2R,4S,4aS)-rel-11-fluoro-2,4-dimethyl-8-(methylsulfanyl)-1,2,4,4a-tetrahydro-2′H,6H-spiro[1,4-oxazino[4,3-a][1,2]oxazolo[4,5-g]quinoline-5,5′-pyrimidine]-2′,4′,6′(1′H,3′H)-trione]	0.9 µM
Cc1ccc(-c2noc3c(Cl)c4c(cc23)CC2(C(=O)NC(=O)NC2=O)[C@H]2[C@H](C)O[C@H](C)CN42)cn1 (relative stereo) [Example 40, (2R,4S,4 aS)-rel-11-chloro-2,4-dimethyl-8-(6-methylpyridin-3-yl)-1,2,4,4a-tetrahydro-2′H,6H-spiro[1,4-oxazino[4,3-a][1,2]oxazolo[4,5-g]quinoline-5,5′-pyrimidine]-2′,4′,6′(1′H,3′H)-trione]	1.6 µM
C[C@@H]1CN2c3c(cc4c(-n5ccnn5)noc4c3F)CC3(C(=O)NC(=O)NC3=O)[C@H]2[C@H](C)O1 (relative stereo) [Example 57, (2R,4S,4aS)-rel-11-fluoro-2,4-dimethyl-8-(1H-1,2,3-triazol-1-yl)-1,2,4,4a-tetrahydro-2′H,6H-spiro[1,4-oxazino[4,3-a][1,2]oxazolo[4,5-g]quinoline-5,5′-pyrimidine]-2′,4′,6′(1′H,3′H)-trione]	1.5 µM
C[C@@H]1CN2c3c(cc4c(C(=O)NC5CN(C)C5)noc4c3F)CC3(C(=O)NC(=O)NC3=O)[C@H]2[C@H](C)O1 (relative stereo) [Example 159, (2R,4S,4aS)-rel-11-fluoro-2,4-dimethyl-N-(1-methylazetidin-3-yl)-2′,4′,6′-trioxo-2,2′,3′,4,4a,4′,6,6′-octahydro-1H,1′H-spiro[isoxazolo[4,5-g][1,4]oxazino[4,3-a]quinoline-5,5′-pyrimidine]-8-carboxamide]	1.4 µM
C[C@@H]1CN2c3c(cc4c(-c5ccccc5)noc4c3F)CC3(C(=O)NC(=O)NC3=O)[C@H]2[C@H](C)O1 (relative stereo) [Example 3, (2R,4S,4aS)-rel-11-fluoro-2,4-dimethyl-8-phenyl-1,2,4,4a-tetrahydro-2′H,6H-spiro[isoxazolo[4,5-g][1,4]oxazino[4,3-a]quinoline-5,5′-pyrimidine]-2′,4′,6′(1′H,3′H)-trione]	0.4 µM
Cc1c2c(cc3c(-c4cnccn4)noc13)CC1(C(=O)NC(=O)NC1=O)[C@H]1[C@H](C)O[C@H](C)CN21 (relative stereo) [Example 101, (2R,4S,4aS)-rel-2,4,11-trimethyl-8-(pyrazin-2-yl)-1,2,4,4a-tetrahydro-2′H,6H-spiro[1,4-oxazino[4,3-a][1,2]oxazolo[4,5-g]quinoline-5,5′-pyrimidine]-2′,4′,6′(1′H,3′H)-trione]	1.4 µM
C[C@@H]1CN2c3c(cc4c(-c5cncc(N(C)C)n5)noc4c3F)CC3(C(=O)NC(=O)NC3=O)[C@H]2[C@H](C)O1 (relative stereo) [Example 177, (2R,4S,4aS)-rel-8-(6-(dimethylamino)pyrazin-2-yl)-11-fluoro-2,4-dimethyl-2,4,4a,6-tetrahydro-1H,1′H-spiro[isoxazolo[4,5-g][1,4]oxazino[4,3-a]quinoline-5,5′-pyrimidine]-2′,4′,6′(3′H)-trione]	5 µM
C[C@@H]1CN2c3c(cc4c(-n5cncn5)noc4c3F)CC3(C(=O)NC(=O)NC3=O)[C@H]2[C@H](C)O1 [Example 53(a), (2R,4 S,4 aS)-11-fluoro-2,4-dimethyl-8-(1H-1,2,4-triazol-1-yl)-2,4,4a,6-tetrahydro-1H,1′H-spiro[isoxazolo[4,5-g][1,4]oxazino[4,3-a]quinoline-5,5′-pyrimidine]-2′,4′,6′(3′H)-trione]	0.2 µM
Cc1ncc(-c2noc3c(Cl)c4c(nc23)CC2(C(=O)NC(=O)NC2=O)[C@H]2[C@H](C)O[C@H](C)CN42)s1 (relative stereo) [Example 117, (2R,4S,4aS)-rel-11-Chloro-2,4-dimethyl-8-(2-methylthiazol-5-yl)-2,4,4a,6-tetrahydro-1H,1′H-spiro[isoxazolo[4,5-g][1,4]oxazino[4,3-a][1,5]naphthyridine-5,5′-pyrimidine]-2′,4′,6′(3′H)-trione]	2 µM
C[C@H]1CN2c3c(cc4c(-c5cccnn5)noc4c3F)CC3(C(=O)NC(=O)NC3=O)[C@@H]2[C@@H](C)O1 (relative stereo) [Example 73, (2R,4S,4aS)-rel-11-fluoro-2,4-dimethyl-8-(pyridazin-3-yl)-1,2,4,4a-tetrahydro-2′H,6H-spiro[1,4-oxazino[4,3-a][1,2]oxazolo[4,5-g]quinoline-5,5′-pyrimidine]-2′,4′,6′(1′H,3′H)-trione]	0.5 µM
CC(=O)NC1CN(C(=O)c2noc3c(F)c4c(cc23)CC2(C(=O)NC(=O)NC2=O)[C@H]2[C@H](C)O[C@H](C)CN42)C1 (relative stereo) [Example 160, N-(1-((2R,4S,4aS)-rel-11-fluoro-2,4-dimethyl-2′,4′,6′-trioxo-2,2′,3′,4,4a,4′,6,6′-octahydro-1H,1′H-spiro[isoxazolo[4,5-g][1,4]oxazino[4,3-a]quinoline-5,5′-pyrimidine]-8-ylcarbonyl)azetidin-3-yl)acetamide]	1 µM
